The assay has as its target D2 -receptor (Rattus norvegicus, UniProt P61169). Briefly: Receptor binding test (3H-ADTN, rat striatal membranes). Set-up: species or system rats (Sprague Dawley).
The mark [1] stands for this setting: displacement of 1 nM 3H-ADTN, rat striatum membranes, 0.1 μM SCH 23390, 40 min at 25° C., read-out: Ki.

This passage reports Ki results from patent US5071864A, “Aminoalkyl-substituted 2-aminothiazoles and therapeutic agents containing them” (BASF Aktiengesellschaft, priority 1989, dated 1991).

Where a name gives a salt, the structure may show the parent alone. Read-outs that look alike come from different tables or passages of the source.

As usually defined, the Ki is the equilibrium dissociation constant of an inhibitor or competing ligand from its target.

D2 -receptor, sequence (P61169 whole entry): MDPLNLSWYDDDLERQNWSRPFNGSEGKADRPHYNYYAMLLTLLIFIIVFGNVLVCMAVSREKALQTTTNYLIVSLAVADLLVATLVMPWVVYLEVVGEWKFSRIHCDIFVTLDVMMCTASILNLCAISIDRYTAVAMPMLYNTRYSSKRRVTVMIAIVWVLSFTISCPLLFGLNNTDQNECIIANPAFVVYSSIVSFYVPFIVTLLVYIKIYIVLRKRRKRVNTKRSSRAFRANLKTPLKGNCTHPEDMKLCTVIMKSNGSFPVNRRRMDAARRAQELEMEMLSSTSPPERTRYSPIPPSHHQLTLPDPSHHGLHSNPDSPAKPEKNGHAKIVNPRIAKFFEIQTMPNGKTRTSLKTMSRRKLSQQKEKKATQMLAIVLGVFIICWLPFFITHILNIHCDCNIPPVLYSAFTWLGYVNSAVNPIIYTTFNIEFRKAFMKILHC
Experimental: Striata from rats (Sprague Dawley, Charles River) were homogenized in 0.32 M sucrose solution (0° C.) immediately after removal. The homogenate was filtered over gauze, the filtrate was centrifuged at 1,000 g (5 min at 4° C.) and the resulting supernatant was centrifuged at 40,000 g (10 min, 4° C.). The residue (membranes) was taken up in incubation buffer (50 mM tris-HCl, 1 mM MgCl2 and 0.1% ascorbic acid, pH 7.4) and incubated for 20 min at 37° C. Washing was then carried out twice with incubation buffer by resuspension and recentrifuging. The membranes were frozen in portions in liquid nitrogen.
The test batches (1 ml) were composed of membranes (380 μg of protein), 1 nM ^3 H-ADTN (NEN, Dreieich Germany, specific radioactivity 1.4 TBq/mmol) and 0.1 μM SCH 23390 (total binding) or a) additionally with 50 nM spiperone (nonspecific binding) or b) with test substance. The batches were prepared in triplicate.
After the end of incubation (40 min at 25° C.), the batches were filtered over glass fiber filters (Whatman GF/B) and washed briefly with ice cold wash buffer (trisHCl, pH 7.4). The radioactivity retained on the filters was determined by liquid scintillation measurement. The nonspecific binding was about 40-50% of the total binding.
Evaluation of the competition curves and determination of the dissociation constant were carried out by iterative nonlinear regression analysis similarly to the program Ligand (Muson and Rodbard: Anal. Biochem. 107 (1980), 220).

For the compound “2-Methylamino-4-methyl-5-[3-(4-phenylpiperazin-1-yl)-propyl]-thiazole dihydrochloride [Example 1]”, the Ki under setting [1] turned out to be 6 nM.

Consider `Cc1nc(N)sc1CCCN(C)CCc1ccccc1` [Example 2, 2-Amino-4-methyl-5-[3-(N-methyl-N-phenethylamino)-propyl]-thiazole fumarate], for which, under setting [1], the inhibition constant (Ki) is 20 nM. As to `Cc1nc(Nc2ccccc2)sc1CCCN1CC=C(c2ccccc2)CC1` [Example 3, 4-methyl-2-phenylamino-5-[3-(4-phenyl-1,2,3,6-tetrahydropyridyl)-propyl]-thiazole dihydrochloride], the Ki was found to be 4 nM. `COc1ccc(-c2nc(N)sc2CCN2CC=C(c3ccccc3)CC2)cc1` [Example 4, 2-Amino-4-(4-methoxyphenyl)-5-[2-(4-phenyl-1,2,3,6-tetrahydropyridyl)-ethyl]-thiazole] gave a Ki of 16 nM. Consider `Nc1nc(-c2cccs2)c(CCN2CC=C(c3ccccc3)CC2)s1` [Example 5, 2-Amino-5-[2-(4-phenyl-1,2,3,6-tetrahydropyridyl)-ethyl]-4-thien-2-ylthiazole dihydrochloride], for which the inhibition constant Ki was 10 nM. Same read-out and setting: under `Nc1nc(-c2ccccc2)c(CCN2CC=C(c3ccccc3)CC2)s1` [Example 8, 2-Amino-4-phenyl-5-[2-(4-phenyl-1,2,3,6-tetrahydropyridyl)-ethyl]-thiazole tartrate] stands 10 nM. As to `Nc1nc(-c2ccccc2)c(CCCN2CCN(c3ccccc3)CC2)s1` [Example 9, 2-Amino-4-phenyl-5-[3-(4-phenylpiperazin-1-yl)-propyl]-thiazole trihydrochloride], the inhibition constant (Ki) under setting [1] was 14 nM.

On to `CCCN(CCCc1sc(N)nc1C)CCc1ccccc1` [Example 10, 2-Amino-4-methyl-5-[3-(N-phenethyl-N-propylamino)-propyl]-thiazole fumarate], for which, under setting [1], the Ki was 10 nM. The compound `Cc1nc(N)sc1CCCN1CC=C(c2ccccc2)CC1` [Example 11, 2-Amino-4-methyl-5-[3-(4-phenyl-1,2,3,6-tetrahydropyridyl)-propyl]-thiazoletartrate] showed an inhibition constant Ki of 10 nM. As for `Nc1nc(-c2ccccc2)c(CCCN2CCN(c3ncccn3)CC2)s1` [Example 13, 2-Amino-4-phenyl-5-[3-(4-pyrimid-2-ylpiperazin-1-yl)-propyl]-thiazole tartrate], under setting [1], the Ki was 10 nM. As to `Nc1nc(-c2ccccc2)c(CCCN2CCN(c3ccccn3)CC2)s1` [Example 14, 2-Amino-4-phenyl-5-[3-(4-pyrid-2-ylpiperazin-1-yl)-propyl]tartrate], the Ki under setting [1] amounted to 15 nM. On the same count and under the same terms, next, `Nc1nc(-c2ccccc2)c(CCCN2CCN(c3ccccc3Cl)CC2)s1` [Example 18, 2-Amino-5-[3-(4-(2-chlorophenyl)-piperazin-1-yl)-propyl]-4-phenylthiazole tartrate]: 25 nM; `Nc1nc(-c2ccccc2)c(CCN2CCN(c3ccccc3[N+](=O)[O-])CC2)s1` [Example 22, 2-Amino-5-[2-(4-(2-nitrophenyl)-piperazin-1-yl)-ethyl]-4-phenylthiazole tartrate]: 16 nM.

`CCCN(CCCc1sc(N)nc1-c1ccccc1)CCc1ccccc1` [Example 23, 2-Amino-4-phenyl-5-[3-(N-propyl-N-phenethylamino)-propyl]-thiazole dihydrochloride]: the Ki under setting [1] came to 20 nM. Same read-out and setting: under `CCCN(CCCCc1sc(N)nc1C)CCc1ccccc1` [Example 25, 2-Amino-4-methyl-5-[4-(N-propyl-N-phenethylamino)-butyl]-thiazole dihydrochloride] stands 4 nM.
